Assays:
[1] = biological target: T1, Amyloid-beta precursor protein (Homo sapiens, UniProt P05067); test: Inhibition of amyloid beta 40 secretion transfected in human H4 cells incubated for 20 to 24 hrs by LPECL assay
[2] = biological target: T1, Amyloid-beta precursor protein; test: Inhibition of amyloid beta 42 secretion transfected in human H4 cells incubated for 20 to 24 hrs by LPECL assay

T1 sequence (P05067 whole entry): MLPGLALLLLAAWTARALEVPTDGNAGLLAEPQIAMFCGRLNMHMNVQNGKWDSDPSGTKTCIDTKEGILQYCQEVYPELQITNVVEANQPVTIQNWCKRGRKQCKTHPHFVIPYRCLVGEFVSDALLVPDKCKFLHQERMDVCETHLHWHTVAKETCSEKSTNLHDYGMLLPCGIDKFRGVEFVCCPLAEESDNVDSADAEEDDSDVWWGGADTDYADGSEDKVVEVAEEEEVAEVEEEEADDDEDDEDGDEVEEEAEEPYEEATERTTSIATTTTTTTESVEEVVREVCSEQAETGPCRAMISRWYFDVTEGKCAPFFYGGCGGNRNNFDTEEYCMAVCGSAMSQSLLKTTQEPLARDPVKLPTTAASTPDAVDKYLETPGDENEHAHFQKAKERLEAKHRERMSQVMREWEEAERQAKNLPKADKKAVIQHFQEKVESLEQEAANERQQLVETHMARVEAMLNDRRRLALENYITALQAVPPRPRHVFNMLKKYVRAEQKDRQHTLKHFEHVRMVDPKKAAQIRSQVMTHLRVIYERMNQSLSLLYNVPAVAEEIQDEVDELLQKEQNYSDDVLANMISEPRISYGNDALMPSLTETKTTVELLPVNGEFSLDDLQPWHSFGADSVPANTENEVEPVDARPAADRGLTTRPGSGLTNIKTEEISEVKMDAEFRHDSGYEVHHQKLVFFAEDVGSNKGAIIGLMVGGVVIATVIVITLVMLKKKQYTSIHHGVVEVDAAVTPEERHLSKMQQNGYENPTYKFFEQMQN

| SMILES | IC50 [1] | IC50 [2] |
| --- | --- | --- |
| COc1cc(/C=C/c2cc(/C=C/c3ccc(O)c(OC)c3)n(Cc3ccccc3)n2)ccc1O | 11.5 µM | 15.3 µM |
| COc1cc(/C=C/c2cc(/C=C/c3ccc(OCC(=O)O)c(OC)c3)on2)ccc1OCC(=O)O | 14.1 µM | > 40 µM |
| COc1cc(/C=C/c2cc(/C=C/c3ccc(O)c(OC)c3)[nH]n2)ccc1O [4-(2-(5-(4-hydroxy-3-methoxystyryl)-1H-pyrazol-3-yl)vinyl)-2-methoxyphenol] | 9.7 µM | 8.7 µM |
| COc1cc(/C=C/c2cc(/C=C/c3ccc(O)c(OC)c3)n(C)n2)ccc1O | 10.4 µM | 9 µM |
| COc1cc(/C=C/c2cc(/C=C/c3ccc(O)c(OC)c3)n(-c3cc(Cl)cc(Cl)c3)n2)ccc1O | 6.3 µM | 3.5 µM |
| COc1cc(/C=C/c2cc(/C=C/c3ccc(O)c(OC)c3)n(-c3ccc([N+](=O)[O-])cc3)n2)ccc1O | 6.2 µM | – |
| COc1cc(/C=C/c2cc(/C=C/c3ccc(O)c(OC)c3)on2)ccc1O [4-((E)-2-{3-[(E)-2-(4-hydroxy-3-methoxyphenyl)vinyl]isoxazol-5-yl}vinyl)-2-methoxyphenol] | 7.4 µM | 6.8 µM |
| COc1cc(/C=C/c2cc(/C=C/c3ccc(O)c(OC)c3)n(CCO)n2)ccc1O | 17.8 µM | 17.3 µM |
| COc1cc(/C=C/c2cc(/C=C/c3ccc(OCC(=O)OC(C)(C)C)c(OC)c3)on2)ccc1OCC(=O)OC(C)(C)C | > 40 µM | > 40 µM |
| COc1cc(/C=C/c2cc(/C=C/c3ccc(O)c(OC)c3)n(-c3ccccc3)n2)ccc1O | 11.3 µM | 14.2 µM |
| COc1cc(/C=C/c2cc(/C=C/c3ccc(O)c(OC)c3)n(-c3ccc(Cl)nn3)n2)ccc1O | 5.4 µM | 4.8 µM |
| COc1cc(/C=C/c2cc(/C=C/c3ccc(O)c(OC)c3)n(-c3ccc(C(C)C)cc3)n2)ccc1O | 6.9 µM | 4.4 µM |
| COc1cc(/C=C/c2cc(/C=C/c3ccc(O)c(OC)c3)n(-c3ccc(C)cc3)n2)ccc1O | 8.7 µM | 5 µM |
| COc1cc(/C=C/c2cc(/C=C/c3ccc(O)c(OC)c3)n(-c3cccc([N+](=O)[O-])c3)n2)ccc1O | 15.1 µM | 14.2 µM |
